From patent US20180333491A1 (Sinotau Pharmaceuticals Group, priority 2015, published 2018)

Columns and labels:
Test in all cases: Cytotoxicity on human tumor cell lines (ATPLite)
Assay type in all cases: cell-based
[1] = system: COLO205
Description: (§1) Eighteen human tumor cell lines were treated with 62.5, 125, 250, 500, or 1000 ng/mL HuCTB006 or different concentrations of chemotherapy drugs, which act as positive controls. […] The culture medium for SK-Hep-1, HepG2, HCT116, SW480, WiDr (1×NEAA), MIA-PaCa-2 (2.5% Horse serum) MDA-MB-231 (1 mM NaPyr, 1×MEM-NEAA, 1×MEM VITAMIN) was DMEM. The culture medium for COLO205, BXPC3 (2 mM glutamin, 10 mM HEPES), Panc2.03 (15FBS, 1 mM NaPyr, 1×MEM-NEAA, […], 10 mM HEPES), H2122, OVCAR3 (1 mM NaPyr, 10 ug/ml human insulin, 10 mM HEPES, 2.5 g/L glucose), Molt-4 (HEPES, 2.5 g/l glocose), Jurkat (HEPES, 2.5 g/l glocose) was RPMI-1640, the culture medium for SK-MES-1 was Eagle's MEM, the culture medium for 2-LMP and DY36T2 was IMEM, and the culture medium for SUM102 (5 ug/ml insulin) was F-12K. The cell viability was determined by ATPLite Assay Kit. If the IC50 value was lower than 62.5 ng/mL, the cells were treated with higher concentration of CTB006 in the second round of experiments to determine IC50 value.

[2] = system: Jurkat
Description: as §1

[3] = system: BXPC3
Description: as §1

[4] = system: MDA-MB-231
Description: as §1

Measured: IC50

HuCTB006: Monospecific humanized chimeric monoclonal antibody directed to TRAIL-R2 receptor; heavy chain SEQ ID NO: 16, light chain SEQ ID NO: 14
~0.01 µg/mL: all assays above
